Laboratory results published in patent US20230263783A1, “CANCER TREATMENT BY COMBINED INHIBITION OF POLO-LIKE KINASE AND MICROTUBULE POLYMERIZATION” (Massachusetts Institute of Technology, priority 2022, published 2023).
Read-outs that look alike come from different tables or passages of the source.

Assays:
[1] = cited from earlier work; for maximum tolerated dose: elderly patients with relapsed/refractory AML
A549 = details: twice-weekly; cited from earlier work
BxPC-3 = details: twice-weekly; cited from earlier work
[2] = test system: C4-2 castrate resistant prostate cancer (CRPC) cells; assay: Relative viability after drug dose matrix (CellTiter-Glo, Bliss Independence) in C4-2 cells; type: cell-based; details: for effect of the combination of TH588 with a Plk1 inhibitor: each Plk1 inhibitor in combination with TH588, relative viability
Protocol: All cell lines were cultured in a humidified incubator at 37° C. and with 5% CO2, were maintained sub-confluent and used for no more than 20 passages. Media was supplemented with 10% fetal bovine serum (FBS), contained 2 mM glutamine and lacked antibiotics, unless otherwise noted. A549, BT-20, CCD-1112sk, CCD-18co, CFPAC1, HCT 116, HeLa, HT-29, HT55, MCF7, MDA-MB-157, MDA-MB-231, MDA-MB-415, MDA-MB-436, MDA-MB-453, MDA-MB-468, SW48, T98G, U-2 OS, U-87 MG, CAOV3, COV362, and JIMT1 cells were grown in DMEM; 22RV1, AU565, C4-2, CAL33, COL0205,HCC38, HCT-15, KYSE150, LNCaP, LOVO, NCI-H1299, PC-3, ZR-75-1, HCC1419, HCC1569, HCC1954, ZR7530, OVCAR-4, OVCAR8 cells were grown in RPMI 1640; HT1197, HT1376, J82, UMUC3 cells were grown in MEM; OV90, TOV122D, TOV21G cells were grown in 1:1 MCDB105:Medial99 15% FBS; 59M, OAW28, OAW42 cells were grown in Advanced DMEM 0.023 IU/ml insulin; ES2, SKOV3 cells were grown in McCoy's 5A; JHOS2, JHOS4 cells were grown in 1:1 DMEM:HamF12; HUVEC cells were grown in EBM with EGM™-2 BULLETKIT™
(§1) For dose response experiments and experiments that examine synergy as a measure of change in relative viability, cells were grown in 384-well plates in triplicate. The following day the cells were subjected to a drug dose matrix that consisted of increasing concentrations of a Plk inhibitor, increasing concentrations of a microtubule polymerization inhibitor, and all pairwise combinations. Drugs were dissolved in DMSO and diluted in the appropriate cell growth media while maintaining a constant final concentration of DMSO. After five days, relative viability was assessed using […]-GLO™ (Promega) Luminescent Cell Viability Assay according to the manufacturer's recommendations. Luminescence was measured using an […]™ M200 Pro plate reader (Tecan Group Ltd.). […] The dose response plots (for example FIG. 1A) show sensitivity to increasing concentrations of a microtubule polymerization inhibitor in the absence or presence of a constant amount of Plk inhibitor. Bars represent the standard error of the mean. The concentration of Plk inhibitor chosen to presented was based on a ˜20-30% reduction of viability when that drug was used at that dose in isolation. The entire amount of greater-than-additive response observed in the dose matrix is the integrated volume between the observed and expected surfaces generated by the response matrix and is also known as Bliss Volume. Bliss Volume synergy metrics are presented in FIG. 3 as the fractional change in volume between the expected and observed response surfaces.

HCT 116 xenografts = details: cited from earlier work
mouse xenograft models = details: 10 mg/kg and 20 mg/kg on days 1 and 28; cited from earlier work
BT20 cells = details: 200 mg/kg; cited from earlier work
[3] = molecular target: several tyrosine kinases and cyclin-dependent kinase 1; details: read-out: IC50, tyrosine kinases and Cdk1; cited from earlier work
[4] = test system: Bel-7402, MCF-7, and MIA-PaCa cells; details: 250 mg/kg; cited from earlier work
Plk1 = Plk1 (Homo sapiens, UniProt P53350); details: cited from earlier work
Sequence of Plk1 (P53350 whole entry): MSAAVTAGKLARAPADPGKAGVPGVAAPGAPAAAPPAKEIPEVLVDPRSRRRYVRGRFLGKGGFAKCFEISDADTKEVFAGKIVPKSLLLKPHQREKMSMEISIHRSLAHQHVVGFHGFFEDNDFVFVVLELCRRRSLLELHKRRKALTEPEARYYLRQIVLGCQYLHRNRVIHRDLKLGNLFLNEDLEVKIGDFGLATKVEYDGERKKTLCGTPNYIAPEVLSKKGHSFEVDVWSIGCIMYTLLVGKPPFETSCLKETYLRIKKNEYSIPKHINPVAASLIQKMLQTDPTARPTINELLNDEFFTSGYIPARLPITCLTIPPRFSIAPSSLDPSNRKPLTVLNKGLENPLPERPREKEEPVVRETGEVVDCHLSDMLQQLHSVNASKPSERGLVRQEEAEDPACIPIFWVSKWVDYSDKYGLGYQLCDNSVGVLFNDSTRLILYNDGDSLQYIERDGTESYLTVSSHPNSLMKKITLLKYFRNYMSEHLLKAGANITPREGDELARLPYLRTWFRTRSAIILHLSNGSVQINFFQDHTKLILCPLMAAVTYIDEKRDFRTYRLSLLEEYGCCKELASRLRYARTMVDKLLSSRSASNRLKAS

[5] = test system: HT-29 human colorectal tumors; details: cited from earlier work
[6] = test system: C4-2 CRPC xenograft tumors; assay: Microwell tumor-implantable device, apoptotic index in xenograft tumors; type: in vivo, mice; details: half-dose BI2536 with half-dose TH588 versus monotherapy wells, 24 hours after implantation, p<0.01, FIG. 2B
Protocol: C4-2 CRPC xenograft tumors were grown in four to six week old castrated male NCR nude mice. Five million C4-2 cells in 200 μl serum free media, mixed 1:1 with growth factor reduced […]® (Invitrogen) were injected into the hind flank subcutaneously using a 23 gauge needle. Tumors took four to eight weeks to grow. Microdose drug delivery devices were manufactured, implanted, and analyzed as described by Jonas, O., et al. Science Translational Medicine, 7(284): 284ra57 (2015). […] Tumors were excised 24 hours after device implantation, fixed in 10% formalin for 24 hours, and embedded in paraffin. Sections were stained with cleaved caspase-3 antibody (Cell Signaling Technologies, 9664) followed by detection with horseradish peroxidase conjugated secondary antibody and diaminobenzidine with hematoxylin used as a counterstain. Images were viewed using an EVOS® Cell Imaging System (Invitrogen) microscope, and scored using ImageJ in a blinded manner. Apoptotic index (Al) was calculated as the percentage of cells that were cleaved caspase-3-positive within […] of the reservoir-tissue interface.

C4-2 CRPC cells [7] = assay: Flow cytometry for mitotic cells (phospho-Ser10 Histone H3); type: cell-based; details: TH588 with Plk1 inhibitor BI2536, 0 to 48 hours, FIG. 1B
Protocol: (§2) C4-2 CRPC cells were plated in 6-well plates at a density of 300,000 cells per well and a total volume of 3 mls. The next day drugs were diluted in the appropriate growth media while maintaining a constant concentration of DMSO and added to the wells. After the indicated amount of time, cells were harvested by trypsinization. The media, trypsin and PBS wash were collected together to avoid loss of loosely attached or detached cells. Cells were fixed in 4% formaldehyde in PBS for 15 minutes, washed with PBS containing 1% bovine serum albumin (PBS-BSA), and then stored in methanol at −20° C. overnight. Cells were then washed twice in PBS-BSA 0.1% Tween-20, incubated with primary antibodies overnight at 4° C., washed with PBS-BSA 0.1% Tween-20 and incubated for 1 hour with fluorescent-dye conjugated secondary antibodies (diluted 1:200, Alexa Fluor, Molecular Probes) at room temperature for 1 hour. Primary antibodies included anti-phospho-serine 10 histone H3 (clone 3H10, Millipore) and anti-active caspase-3 (clone C92-605, BD Pharmingen). The fixed cells were then washed with PBS-BSA 0.1% Tween-20 and resuspended in PBS containing 1 μg/ml 4,6-diamidino-2-phenylindole (DAPI, Molecular Probes) to stain DNA and analyzed using a BD™ LSRII flow cytometer (Becton Dickinson) and the FLOWJO™ software package. Shown is the average of three replicates±standard error of the mean.

non-cancer cells = assay: Combination synergy (Bliss Volume) in non-cancer cell lines; type: cell-based; details: TH588 with a Plk1 inhibitor; FIG. 3
Protocol: (§3) All cell lines were cultured in a humidified incubator at 37° C. and with 5% CO2, were maintained sub-confluent and used for no more than 20 passages. Media was supplemented with 10% fetal bovine serum (FBS), contained 2 mM glutamine and lacked antibiotics, unless otherwise noted. […]
(§4) For dose response experiments and experiments that examine synergy as a measure of change in relative viability, cells were grown in 384-well plates in triplicate. […] After five days, relative viability was assessed using […]-GLO™ (Promega) Luminescent Cell Viability Assay according to the manufacturer's recommendations. Luminescence was measured using an […]™ M200 Pro plate reader (Tecan Group Ltd.). […]

[8] = test system: cancer cell lines of various origin; assay: Combination synergy (Bliss Volume) in cancer cell lines of various origin; type: cell-based; details: TH588 with a Plk1 inhibitor; approximately thirty cell lines, in the majority of these; FIG. 3
Protocol: as §3, §4

C4-2 CRPC cells [9] = assay: Flow cytometry for apoptotic cells (cleaved caspase-3); type: cell-based; details: TH588 with Plk1 inhibitor BI2536, 0 to 48 hours, FIG. 1C
Protocol: as §2

tubulin = assay: Microtubule polymerization in vitro; type: biochemical
tumor cells = assay: Tumor cell killing by other microtubule polymerization inhibitors with Plk1 inhibitors; type: cell-based; details: in combination with Plk1 inhibitors
Protocol: as §1, with “Bliss Volume synergy metrics are presented in FIG. 3 as the fractional change in volume between the expected and observed response surfaces.” left out

cell mitosis = details: read-out: EC50, inhibition of cell mitosis; cited from earlier work
[10] = test system: Cdc25C-T96 phosphorylation; details: direct readout of PLK1 inhibition; cited from earlier work
[11] = cited from earlier work

**Q.** Which “MTD suggested by other studies” value ([1]; Frost et al.) does the source give for `CC[C@@H]1C(=O)N(C)c2cnc(Nc3ccc(C(=O)NC4CCN(C)CC4)cc3OC)nc2N1C1CCCC1` [BI2536] here?
**A.** 50 to 70 mg

**Q.** And the maximum tolerated dose ([1]; day 1 schedule)?
**A.** 350 mg

**Q.** What about the maximum tolerated dose ([1]; days 1+8 schedule) of the same compound?
**A.** 200 mg

**Q.** What about the “maximum tolerated dose (MTD) in combination with pemetrexed” value ([1]; intravenous, NSCLC, day 1 every 3 weeks) of the same compound?
**A.** 300 mg

**Q.** And the “dose at which dose-limiting toxicities occurred” value ([1]; with 500 mg/m^2 pemetrexed, NSCLC, day 1 every 3 weeks, two DLT)?
**A.** 325 mg

**Q.** And the “T/C, A549 model” value (A549)?
**A.** 14%

**Q.** What about the “T/C, BxPC-3 model” value (BxPC-3) of the same compound?
**A.** 5%

**Q.** And the “effect of the combination of TH588 with a Plk1 inhibitor” value (from here on “effect … with a Plk1 inhibitor”) [2]?
**A.** more than additive

**Q.** And the “T/C, HCT 116 xenografts” value (HCT 116 xenografts; 50 mg/kg once per week)?
**A.** 15%

**Q.** And the “T/C, HCT 116 xenografts” value (HCT 116 xenografts; 50 mg/kg twice per week)?
**A.** 0.3%

**Q.** For `C[C@@H](Oc1cc(-n2cnc3ccc(CN4CCN(C)CC4)cc32)sc1C(N)=O)c1ccccc1C(F)(F)F` [GSK461364], which “final recommended phase II dose” value ([1]; intravenously, schedule A (days 1, 8, and 15 of 28-day cycle)) is on record?
**A.** 225 mg

**Q.** What about the “incidence of venous thrombotic emboli (VTE)” value ([1]; phase I, advanced solid tumors) of the same compound?
**A.** 20%

**Q.** What about the “effect … with a Plk1 inhibitor” value [2] of the same compound?
**A.** more than additive

**Q.** For `COc1ccc(S(=O)(=O)Nc2ccccc2/C=C/c2cc[n+]([O-])cc2)cc1` [HMN-176], which “antitumor activity in mouse xenograft models” value (mouse xenograft models) is on record?
**A.** potent antitumor activity

**Q.** Which results are given for `COc1ccc(S(=O)(=O)N(C(C)=O)c2ccccc2/C=C/c2cc[n+]([O-])cc2)cc1` [HMN-214]?
**A.** MTD ([1]; 5 consecutive days every 4 weeks, based on previous patient treatment load): 18 to 30 mg/m^2; doses at which DLTs were observed ([1]; 5 consecutive days every 4 weeks): 24 to 48 mg/m^2; maximum tolerated dose and recommended dose ([1]; continuous 21-day dosing every 28 days): 8.0 mg/m^2/d; dose with dose-limiting toxicities ([1]; continuous 21-day dosing every 28 days, myalgia/bone pain syndrome and hyperglycemia): 9.9 mg/m^2/d

**Q.** Which MTD ([1]; i.v., days 1, 4, 8, 11, 15, and 18 in 28-day cycles, advanced solid tumors) does the source give for `COc1cc(OC)c(/C=C/S(=O)(=O)Cc2ccc(OC)c(NCC(=O)[O-])c2)c(OC)c1.[Na+]` [ON 01910] here?
**A.** 3,120 mg

**Q.** And the “tumor growth in xenograft model” value (BT20 cells)?
**A.** inhibition of tumor growth

**Q.** And the IC50 [3]?
**A.** 18 to 260 nM

**Q.** And the “tumor growth in xenograft models” value [4]?
**A.** inhibited tumor growth

**Q.** Which IC50 (Plk1) does the source give for `COc1cc(C(=O)N[C@H]2CC[C@H](N3CCN(C)CC3)CC2)ccc1Nc1ncc2c(n1)N(C1CCCC1)CC1(CC1)C(=O)N2C` [Plogosertib] here?
**A.** 3 nM

**Q.** What does the source list for `COc1cc(C(=O)NC2CCN(C)CC2)ccc1Nc1ncc2c(n1)N(C1CCCC1)CC(F)(F)C(=O)N2C` [RO3280]?
**A.** antitumor activity when dosed more frequently ([5]; dosed more frequently): complete tumor regression; tumor growth inhibition ([5]; once weekly at 40 mg/kg): 72%

**Q.** With `Nc1nc(NC2CC2)cc(-c2cccc(Cl)c2Cl)n1` [TH588] as the compound, how does the “effect on tumor cell killing in vivo (cleaved caspase-3 positive cells)” value [6] read?
**A.** more-than-additive

**Q.** And the “mitotic arrest with the combination” value (C4-2 CRPC cells [7])?
**A.** greater than additive

**Q.** And the “effect of killing by the drug combination in non-cancer cells” value (non-cancer cells)?
**A.** not more than additive

**Q.** What about the “effect of tumor cell killing using the combination treatment” value [8] of the same compound?
**A.** more than additive

**Q.** And the “effect of killing cancer cells by the combination of Plk1 inhibitors with TH588, versus each alone” value ([2]; C4-2 CRPC cells, TH588 with BI2536, five days, Bliss Independence model, FIG. 1A)?
**A.** more than additive

**Q.** What about the “apoptotic cancer cell killing with the combination” value (C4-2 CRPC cells [9]) of the same compound?
**A.** greater than additive

**Q.** And the “microtubule polymerization in vitro” value (tubulin)?
**A.** inhibits microtubule polymerization

**Q.** For `COC(=O)Nc1nc2ccc(C(=O)c3cccs3)cc2[nH]1` [nocodazole], which “effect when used with Plk1 inhibitors in killing tumor cells” value (tumor cells) is on record?
**A.** more-than-additive effect

**Q.** With `CN1CCN(c2ccc(OC(F)(F)F)c(Nc3ncc4c(n3)-c3c(c(C(N)=O)nn3CCO)CC4)c2)CC1` [onvansertib] as the compound, how does the “effect … with a Plk1 inhibitor” value [2] read?
**A.** more than additive

**Q.** Which “effect when used with Plk1 inhibitors in killing tumor cells” value (tumor cells) does the source give for `CC[C@]1(O)C[C@@H]2C[N@@](CCc3c([nH]c4ccccc34)[C@@](C(=O)OC)(c3cc4c(cc3OC)N(C=O)[C@H]3[C@@](O)(C(=O)OC)[C@H](OC(C)=O)[C@]5(CC)C=CCN6CC[C@]43[C@@H]65)C2)C1` [vincristine] here?
**A.** more-than-additive effect

**Q.** What does the source list for MLN0905?
**A.** EC50 (cell mitosis): 9 nM; EC50 [10]: 29 nM; maximum tolerated dose ([11]; QD (daily) schedule): 6.25 mg/kg; maximum tolerated dose ([11]; QDx3/wk (3-days on/4-days off) schedule): 14.5 mg/kg
